Experimental findings from paper PMC7943581, “Tumor-penetrating therapy for β5 integrin-rich pancreas cancer” (Nature Communications, 2021) are described below.

For one assay, the system named is PDAC in KPC mice. The assay is described as follows: Long-term treatment of KPC mice, gemcitabine with or without iRGD. The format is in vivo, mouse. The method, then: One hundred micrograms of FAM-labeled peptide dissolved in 100 μl of PBS was intravenously injected into tumor mice, and allowed to circulate for 15, 30, or 60 min. The mice were perfused through the heart under deep anesthesia using PBS containing 1% BSA, and tissues were harvested, fixed with 4% PFA overnight, washed three times with PBS, and then transferred to 30% sucrose prior to embedding in optimal cutting temperature compound (OCT). In some cases, the FAM signal was enhanced with an anti-fluorescein antibody (1:200) (Cat no. A-889, Invitrogen) followed by a secondary anti-rabbit Alexa 488 antibody (1:200) (Invitrogen). Other antibodies used for immunofluorescence were anti-FAP (1:100) (Cat. no. ABT-11, Millipore Sigma, Temecula, CA), Cy3-anti-αSMA (1:100) (Clone 1A4, Cat. no. C6198, Millipore Sigma), anti-ER-TR7 (1:100) (Cat. no. SC-73355, Santa Cruz Biotechnology, Dallas, TX), rabbit anti-mouse β5 integrin (1:200) (Cat. no. 15459, GeneTex, Irvine, CA), rabbit monoclonal anti-Ki67 (1:200) (Clone SP6, Cat. no. ab16667, Abcam), mouse monoclonal anti-αSMA (0.034 μg/ml) (Clone 1A4, Cat. no. ab7817, Abcam), and rat anti-mouse CD31(1:100) (Clone MEC 13.3, Cat. no. 550274, BD Biosciences) antibodies. The sections were also stained with 4′,6-diamidino-2-phenylindole (DAPI) (1:1000) (Invitrogen). The stained tissue sections were examined with a Zeiss confocal microscope (Zeiss, Dublin, CA). To quantify FAM-iRGD homing (green) and its colocalization with CAFs (red), confocal micrographs were converted to RGB color mode and analyzed with an ImageJ software for the intensity and areas positive for one or both colors. Six to eight random fields per tumor were chosen and repeated in three tumor mice for each time point. For intraductal spreading of FAM-iRGD, cancerous ducts with or without FAM-iRGD signal were manually counted per field of view in confocal micrographs. Six random fields were chosen for each of the three tumors at both time points.
Immunohistochemistry was performed as described previously. Briefly, paraffin-embedded sections were cleared, rehydrated, and subjected to steam heat-mediated antigen retrieval using low or high pH buffer (eBioscience). Endogenous peroxidase activity was blocked with BloxALL (Vector, Burlingame, CA). Blocking was performed with 10% donkey or goat serum plus 5% BSA. The sections were treated with a rabbit anti-αvβ5 polyclonal antibody (1:200) (Cat. no. bs-1356R, BIOSS, Woburn, MA) or a rabbit polyclonal anti-cleaved caspase 3 antibody (1:250) (Cat. no. 9579S, Cell Signaling) at 4 °C overnight and incubated with ImmPRESS (IHC-P, rabbit, MP-7401) secondary antibody reagent (Vector, Burlingame, CA). The sections were counter stained with hematoxylin and eosin (H&E) and viewed with a Nikon Eclipse E-600 bright field microscope.
KPC mice with PDAC of ~4–5 mm confirmed by palpation and ultrasound imaging were randomized into respective treatment cohorts: iRGD alone (100 μg/IV injection, n = 10); gemcitabine (TSZ Chem, Waltham, MA) (100 mg/kg/IP injection, n = 18); iRGD + gemcitabine (n = 16). The treatment was given every 4 days until the mice met the criteria for sacrifice defined by the IACUC. Survival curves were drawn and analyzed using GraphPad (Prism8) software. In another study, the KPC mice were randomized into gemcitabine (100 mg/kg/IP injection) + nab-paclitaxel composed of mouse albumin (30 mg/kg/IP injection) or iRGD (100 μg/IV injection) + gemcitabine + nab-paclitaxel. […]

Assay [1] has as its system αvβ5 integrin expression in PC3 cells. Description: Cell surface αvβ5 integrin expression in PC3 cells with TGF-β or LY2157299. The following applies: for avb5 MFI: Fig 4E. In kind it is cell-based, human. The procedure: (§1) Spheroids were generated by incubating 5 × 10^4 cells per well in 24-well low binding plates for 3 days. For co-culture studies, spheroids prepared with a mixture of 5 × 10^4 CAFs and 10^4 tumor cells per well were used. In some cases, spheroids were maintained in CM for 2 days in the presence or absence of 10 μM dimethyl sulfoxide (DMSO) or a specific TGF-β inhibitor LY2157299 (PeproTech, Princeton, NJ). The CM was prepared from the supernatant of 3-day-old cultures of CAFs or tumor cells, which was centrifuged at 2000×g for 40 min to remove cellular debris. Some spheroids were incubated in the presence of 30 ng/ml human TGF-β (eBioscience, San Diego, CA) for 48 h.
(§2) Cells were trypsinized into a single cell suspension before staining. The primary antibodies were mouse anti-human αvβ3 (1 μg/sample) (Clone LM609 Cat no. MAB1976, EMD Millipore, Billerica, MA), mouse anti-human αvβ5 (1 μg) (Clone P1F6, Cat no. MAB1961 EMD Millipore), rat anti-mouse αv (1 μg) (Clone RMV7, Cat no. 50-104-13, eBioscience), rabbit anti-human NRP-1 b1b2[20] (1 μg), and Alexa 647 or BV421-conjugated mouse anti-human/mouse αvβ5 (1:50) (clone ALULA Cat no. 565836 or 743669, BD Biosciences, San Jose, CA). The primary antibodies were detected with corresponding secondary antibodies conjugated with Alexa 488, 594, or 647 (1:250) (Invitrogen). The cells were analyzed with an LSR Fortessa System (BD Biosciences), and the data were analyzed with a FlowJo software. Cells were gated on single cells and then on live cells by excluding DAPI or PI positive cells. In tumor cell/CAF co-culture experiments, mCherry high cells were gated in order to define the mCherry-labeled CAFs. For iRGD-AgNP uptake quantification, specific uptake was defined by gating cells positive for either Alexa 647 or 488, which were attached to the AgNPs.
(§3) Spheroids were dissociated into a single cell suspension as described in the previous section. The cells were subjected to flow cytometry to analyze the protein expression of αvβ3 and αvβ5 integrins and NRP-1. The flow cytometry was performed as described in a previous section. Some cells were also subjected to qPCR to analyze mRNA expression of αv (ITGav) and ITGb5 integrin subunits, TGF-β, and ZEB1. Total RNA was extracted using Trizol Reagent (Invitrogen), and cDNA was generated using a SuperScript III First-strand Synthesis System (Invitrogen). qPCR was performed using SYBR green in an ABI 7900 HT (Applied Biosystems, Foster City, CA). The results were normalized against β-actin and cyclophilin A. The list of primers can be found in Supplementary Table 1.

The test system of assay [2] is NRP-1 expression in PC3 cells. Description: Cell surface NRP-1 expression in PC3 cells with TGF-β or LY2157299. In kind it is cell-based, human. The settings on record: Fig 4F. The procedure: as §1, §2, §3
In a further assay the test system is KPC mouse tumors. Description: Modified Miles assay, Evans Blue with iRGD co-injection. The format is in vivo. The following applies: IV 100 μl 1% Evans blue then 100 μg iRGD or PBS, 40 min, OD 600 nm, Fig S14. The method, then: The experiments were performed as described earlier[20],[38]. In brief, for Miles assays, anesthetized mice were warmed to 37 °C for 10 min, followed by an IV bolus of 100 μl of 1% Evans blue dye and then 100 μg of iRGD. After 40 min, the mice under deep anesthesia were perfused through the heart with PBS containing 1% BSA and the organs were harvested for dye extraction using […]. OD 600 nm of the supernatant was measured. For dextran delivery, mice were intravenously injected with 0.3 mg of iRGD followed by 0.3 mg of 10 kDa Alexa 647-conjugated fixable dextran (Invitrogen). After 1 h of circulation, mice were perfused with PBS containing 1% BSA and the organs were harvested and processed for immunofluorescence.

Assay [3] concerns mPCFAA0779 CAFs and LM-PmC cells. Description: Peptide entry in 2D co-cultures (confocal microscopy). The format is cell-based, mouse. The following applies: 2D co-culture, 20 μM peptide, 4 h, 37 °C. The procedure:
A mixture of tumor cells and CAFs at a 2:1 ratio was grown on collagen I-coated coverslips (BD Biosciences) overnight or until they became confluent. The cells were incubated with 20 μM of FAM-labeled peptides for 4 h at 37 °C. The cells were briefly rinsed with warm PBS, fixed in warm 4% paraformaldehyde, and stained with DAPI (1:1000). The cells were visualized with a Fluoview 500 confocal microscope (Olympus America, Center Valley, PA).

For `Nc1ccn([C@@H]2O[C@H](CO)[C@@H](O)C2(F)F)c(=O)n1` [Gem, gemcitabine], the “liver metastases (median)” value with PDAC in KPC mice (KPC mice, necropsy of random samples, not significant) is reported as 26. Moreover, in the assay with PDAC in KPC mice (KPC mice, necropsy of random samples, p = 0.03), the “lung metastases (median)” value is reported as 9. For the same compound, the “survival at 180 days” value in the assay with PDAC in KPC mice (KPC mice, treatment every 4 days) is on record as 0%. Further, the median survival with PDAC in KPC mice (KPC mice, treatment every 4 days, n = 16 combination, n = 18 gemcitabine) is given as 71 days.

Consider `Cc1cccc(-c2nn3c(c2-c2ccnc4ccc(C(N)=O)cc24)CCC3)n1` [LY2157299], for which, in assay [1] (10 μM, 2 days in CM), the “effect on CAF CM-induced αvβ5 expression in PC3 cells” value is recorded as “completely blocked”. The “avb5 MFI” value in assay [1] (PC3, CAFCM+LY, Exp1) stood at 4907; in assay [1] (PC3, CAFCM+LY, Exp2), 3245; in assay [1] (PC3, CAFCM+LY, Exp3), 2633; in assay [1] (PC3, CAFCM+LY, Exp4), 2959; in assay [1] (PC3, NM+TGFb+LY, Exp1), 4584; in assay [1] (PC3, NM+TGFb+LY, Exp2), 3278. The “avb5 MFI” value in assay [1] (PC3, NM+TGFb+LY, Exp3) turned out to be 2186; in assay [1] (PC3, NM+TGFb+LY, Exp4), 2450. Besides, the “NRP1 MFI” value in assay [2] (PC3, CAFCM+LY, Exp1) is recorded as 4550; in assay [2] (PC3, CAFCM+LY, Exp2), 2287; in assay [2] (PC3, CAFCM+LY, Exp3), 2840; in assay [2] (PC3, NM+TGFb+LY, Exp1) it was 11021; in assay [2] (PC3, NM+TGFb+LY, Exp2), 3760; in assay [2] (PC3, NM+TGFb+LY, Exp3), 6318.

`Cc1cc(-c2ccc(/N=N/c3ccc4c(S(=O)(=O)O)cc(S(=O)(=O)O)c(N)c4c3O)c(C)c2)ccc1/N=N/c1ccc2c(S(=O)(=O)O)cc(S(=O)(=O)O)c(N)c2c1O` [PBS + EB, Evans Blue]: the entries for the “Evans Blue in KPC mouse tumors normalized against wet tissue weight” value with KPC mouse tumors (Exp 1), in the assay on KPC mouse tumors (Exp 2) and in the assay with KPC mouse tumors (Exp 3) were 0.004 µg/mL/mg, 0.07 µg/mL/mg and -0.074 µg/mL/mg, respectively.

On to “CRGDK/RGPD/EC [iRGD, iRGD tumor-penetrating peptide (CRGDK/RGPD/EC)]”, for which, in the assay with PDAC in KPC mice (iRGD alone 100 μg IV every 4 days, n = 10, Fig S15), the “therapeutic benefit vs historical survival of untreated KPC mice” value is “did not provide any therapeutic benefit”.

Take “CRGEKGPDC [FAM-iRGE, variant peptide (…) with the RGD motif changed to RGE, FAM-labeled]”: in assay [3], the “entry of FAM-labeled peptide into cells” value is “minimal affinity to the cells”.

For the compound FAM-CRGDC, the “entry of FAM-labeled peptide into cells” value in assay [3] is “to a much lesser extent than FAM-iRGD”.

TGF-β: the “avb5 MFI” value in assay [1] (PC3, NM+TGFb+DMSO, Exp1) was found to be 7502; in assay [1] (PC3, NM+TGFb+DMSO, Exp2), 9515; in assay [1] (PC3, NM+TGFb+DMSO, Exp3), 6238; in assay [1] (PC3, NM+TGFb+DMSO, Exp4), 5783. For the same compound, in assay [1] (cultured PC3 cells, 30 ng/ml, 48 h), the “effect of exogenous TGF-β on αvβ5 expression” value was “reproduced the CAF CM-induced increase in αvβ5 expression”. The “NRP1 MFI” value came to 12904 in assay [2] (PC3, NM+TGFb+DMSO, Exp1); 3924 in assay [2] (PC3, NM+TGFb+DMSO, Exp2); 4995 in assay [2] (PC3, NM+TGFb+DMSO, Exp3).
